# Laboratory results taken from patent US10479819B2 (priority 2014, dated 2019).
# Where two headings read alike, the source gives them in different places. Starred links: 1 amine or outer side, 2 acyl side, 3 side chain; linkers in the order of their positions; H or OH if unused. Non-standard residues stand in square brackets, D forms with d. Residues, ends and D or L forms follow the SMILES beside them. Groups on a side chain read outwards from the residue. *: point of attachment. C18 diacid = O=C(O)CCCCCCCCCCCCCCCCC(=O)*; γGlu = O=C(O)[C@H](CCC(=O)[*:2])N[*:1]; PEG2 = NCCOCCOCCC(=O)O
# Assays:
# human GLP-1R = biological target: T1, human GLP-1R (Homo sapiens, UniProt P43220); assay: In vitro activity on GLP-1R, CRE-luciferase HEK-293 cells; type: cell-based; conditions: for GLP-1R/GCGR: ratio of EC50 GLP-1R to EC50 GCGR
# T1 construct: expressed in transfected cells
# T1 sequence (P43220 24-463): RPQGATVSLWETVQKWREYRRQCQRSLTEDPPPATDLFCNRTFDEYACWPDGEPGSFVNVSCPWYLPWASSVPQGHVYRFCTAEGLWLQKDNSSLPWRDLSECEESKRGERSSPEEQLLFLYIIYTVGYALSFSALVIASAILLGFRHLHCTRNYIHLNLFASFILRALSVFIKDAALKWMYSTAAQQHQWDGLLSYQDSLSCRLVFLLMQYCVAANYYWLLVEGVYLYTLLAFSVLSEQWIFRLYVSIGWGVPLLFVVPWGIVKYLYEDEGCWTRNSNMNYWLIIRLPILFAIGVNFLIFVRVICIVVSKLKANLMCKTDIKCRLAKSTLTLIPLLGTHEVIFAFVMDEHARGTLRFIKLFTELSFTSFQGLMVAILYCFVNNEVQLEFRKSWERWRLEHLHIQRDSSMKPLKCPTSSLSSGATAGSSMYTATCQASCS
# Method: (§1) 5000 of HEK-293 cells, which are used in CRE-luciferase system and express human GCGR or GLP-1R stably, were inoculated into 384 well plates according to […] DMEM/10% FBS media/well. […] After incubation, […] of luciferase reagent was added directly to each plate and mixed gently for 2 minutes. The plates were placed into an Elmer Perkin plate reader for reading. Concentration curve of the compound was made by drawing software Prism 5, and the EC50 value was calculated.
# human GCGR = biological target: T2, human GCGR (Homo sapiens, UniProt P47871); assay: In vitro activity on GCGR, CRE-luciferase HEK-293 cells; type: cell-based; conditions: read-out: GCGR (EC50)
# T2 construct: expressed in transfected cells
# T2 sequence (P47871 26-477): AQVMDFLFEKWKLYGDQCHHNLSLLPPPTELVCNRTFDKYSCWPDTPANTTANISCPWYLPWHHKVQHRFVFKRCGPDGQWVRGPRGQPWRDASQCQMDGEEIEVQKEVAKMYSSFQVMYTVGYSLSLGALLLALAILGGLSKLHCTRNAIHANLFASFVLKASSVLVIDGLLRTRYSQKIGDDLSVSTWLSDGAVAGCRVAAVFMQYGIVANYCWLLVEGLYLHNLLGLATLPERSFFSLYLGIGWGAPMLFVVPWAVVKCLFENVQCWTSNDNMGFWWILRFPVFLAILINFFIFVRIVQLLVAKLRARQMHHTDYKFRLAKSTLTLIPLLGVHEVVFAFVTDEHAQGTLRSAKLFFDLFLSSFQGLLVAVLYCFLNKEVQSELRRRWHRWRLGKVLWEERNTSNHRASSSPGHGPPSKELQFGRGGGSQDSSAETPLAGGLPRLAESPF
# Method: as §1
# [1] = Pharmacokinetic analysis after IV or SC administration in male CD1 mice; conditions: for Tmax / half-life: iv
# Method: Pharmacokinetic parameters of the drugs were calculated by methods of model dependence (for data obtained from IV) and model independence (data obtained from SC).
# male C57B1/6J mice = assay: Oral glucose tolerance test in male C57B1/6J mice; type: in vivo; conditions: 250 μg/kg; for AUC of blood glucose in all four OGTT curve periods (0-480 min) compared with carrier (PBS): P<0.05; for effect on oral glucose tolerance: male C57B1/6J mice
# Method: 12-16 week-old male C57B1/6J mice (Nanjing University model animal research center) were randomly divided into groups 8 in each group, according to similar blood glucose (assessed by the blood samples obtained from the tail tip). After fasting (for 6 hours), the animals were administrated, and about 4 hours later, initial blood samples (fasting blood glucose level) were taken. Subsequently, the animals were administrated with an oral dose of glucose, and then put back into their cages (t=0). Blood glucose was measured at t=15 minutes, t=30 minutes, t=60 minutes, t=90 minutes and t=120 minutes. And then the animals were administrated with an oral dose of glucose again, and blood glucose was tracked until 8 hours.
# DIO mice = assay: Body weight reduction in DIO (obese) mice; type: in vivo; conditions: 250 μg/kg SC daily, day 11 to day 30, DIO mice; for body weight compared with normal saline group: P<0.05
# Excerpt: Forty 25-week-old DIO mice (Nanjing University model animal research center) were randomly divided into five groups (compound 4, 5, 6, 7, and normal saline group), 8 in each group, having no difference in the basis weight of each group.
smiles,measurement,setting,value
CSCC[C@H](NC(=O)[C@H](CC(C)C)NC(=O)[C@H](Cc1c[nH]c2ccccc12)NC(=O)[C@H](CCC(N)=O)NC(=O)[C@@H](NC(=O)[C@H](Cc1ccccc1)NC(=O)[C@H](CC(=O)O)NC(=O)[C@H](CCC(N)=O)NC(=O)[C@H](C)NC(=O)[C@H](CCCNC(=N)N)NC(=O)[C@H](CCCNC(=N)N)NC(=O)[C@H](CCCCNC(=O)CCOCCOCCNC(=O)CCOCCOCCNC(=O)CC[C@H](NC(=O)CCCCCCCCCCCCCCCCC(=O)O)C(=O)O)NC(=O)[C@H](CC(=O)O)NC(=O)[C@H](CC(C)C)NC(=O)[C@H](Cc1ccc(O)cc1)NC(=O)[C@H](CCCCN)NC(=O)[C@H](CO)NC(=O)[C@H](Cc1ccc(O)cc1)NC(=O)[C@H](CC(=O)O)NC(=O)[C@H](CO)NC(=O)[C@@H](NC(=O)[C@H](Cc1ccccc1)NC(=O)[C@@H](NC(=O)CNC(=O)[C@H](CCC(N)=O)NC(=O)[C@@H](CO)NC(=O)[C@@H](N)Cc1c[nH]cn1)[C@@H](C)O)[C@@H](C)O)C(C)C)C(=O)N[C@@H](CC(N)=O)C(=O)N[C@H](C(=O)NCC(=O)NCC(=O)N1CCC[C@H]1C(=O)N[C@@H](CO)C(=O)N[C@@H](CO)C(=O)NCC(=O)N[C@@H](C)C(=O)N1CCC[C@H]1C(=O)N1CCC[C@H]1C(=O)N1CCC[C@H]1C(=O)N[C@@H](CO)C(N)=O)[C@@H](C)O [Compound 11],GLP-1R/GCGR,human GLP-1R,0.8
same,EC50,human GLP-1R; read-out: GLP-1R (EC50),0.15 nM
same,EC50,human GCGR,0.18 nM
CSCC[C@H](NC(=O)[C@H](CC(C)C)NC(=O)[C@H](Cc1c[nH]c2ccccc12)NC(=O)[C@H](CCC(N)=O)NC(=O)[C@@H](NC(=O)[C@H](Cc1ccccc1)NC(=O)[C@H](CC(=O)O)NC(=O)[C@H](CCC(N)=O)NC(=O)[C@H](C)NC(=O)[C@H](CCCNC(=N)N)NC(=O)[C@H](CCCNC(=N)N)NC(=O)[C@H](CCCCNC(=O)CCOCCOCCNC(=O)CCOCCOCCNC(=O)CCCCCCCCCCCCCCCCC(=O)O)NC(=O)[C@H](CC(=O)O)NC(=O)[C@H](CC(C)C)NC(=O)[C@H](Cc1ccc(O)cc1)NC(=O)[C@H](CCCCN)NC(=O)[C@H](CO)NC(=O)[C@H](Cc1ccc(O)cc1)NC(=O)[C@H](CC(=O)O)NC(=O)[C@H](CO)NC(=O)[C@@H](NC(=O)[C@H](Cc1ccccc1)NC(=O)[C@@H](NC(=O)CNC(=O)[C@H](CCC(N)=O)NC(=O)[C@@H](CO)NC(=O)[C@@H](N)Cc1c[nH]cn1)[C@@H](C)O)[C@@H](C)O)C(C)C)C(=O)N[C@@H](CC(N)=O)C(=O)N[C@H](C(=O)NCC(=O)NCC(=O)N1CCC[C@H]1C(=O)N[C@@H](CO)C(=O)N[C@@H](CO)C(=O)NCC(=O)N[C@@H](C)C(=O)N1CCC[C@H]1C(=O)N1CCC[C@H]1C(=O)N1CCC[C@H]1C(=O)N[C@@H](CO)C(N)=O)[C@@H](C)O [Compound 9],GLP-1R/GCGR,human GLP-1R,2.9
same,EC50,human GCGR,0.18 nM
CSCC[C@H](NC(=O)[C@H](CC(C)C)NC(=O)[C@H](Cc1c[nH]c2ccccc12)NC(=O)[C@H](CCC(N)=O)NC(=O)[C@@H](NC(=O)[C@H](Cc1ccccc1)NC(=O)[C@H](CC(=O)O)NC(=O)[C@H](CCC(N)=O)NC(=O)[C@H](C)NC(=O)[C@H](CCCNC(=N)N)NC(=O)[C@H](CCCNC(=N)N)NC(=O)C(C)(C)NC(=O)[C@H](CC(=O)O)NC(=O)[C@H](CC(C)C)NC(=O)[C@H](Cc1ccc(O)cc1)NC(=O)[C@H](CCCCN)NC(=O)[C@H](CO)NC(=O)[C@H](CCCCNC(=O)CCOCCOCCNC(=O)CCOCCOCCNC(=O)CC[C@H](NC(=O)CCCCCCCCCCCCCCCCC(=O)O)C(=O)O)NC(=O)[C@H](CC(=O)O)NC(=O)[C@H](CO)NC(=O)[C@@H](NC(=O)[C@H](Cc1ccccc1)NC(=O)[C@@H](NC(=O)CNC(=O)[C@H](CCC(N)=O)NC(=O)[C@@H](CO)NC(=O)[C@@H](N)Cc1c[nH]cn1)[C@@H](C)O)[C@@H](C)O)C(C)C)C(=O)N[C@@H](CC(N)=O)C(=O)N[C@H](C(=O)NCC(=O)NCC(=O)N1CCC[C@H]1C(=O)N[C@@H](CO)C(=O)N[C@@H](CO)C(=O)NCC(=O)N[C@@H](C)C(=O)N1CCC[C@H]1C(=O)N1CCC[C@H]1C(=O)N1CCC[C@H]1C(=O)N[C@@H](CO)C(N)=O)[C@@H](C)O [Compound 8],GLP-1R/GCGR,human GLP-1R,1.1
same,EC50,human GCGR,0.18 nM
CSCC[C@H](NC(=O)[C@H](CC(C)C)NC(=O)[C@H](Cc1c[nH]c2ccccc12)NC(=O)[C@H](CCC(N)=O)NC(=O)[C@@H](NC(=O)[C@H](Cc1ccccc1)NC(=O)[C@H](CC(=O)O)NC(=O)[C@H](CCC(N)=O)NC(=O)[C@H](C)NC(=O)[C@H](CCCNC(=N)N)NC(=O)[C@H](CCCNC(=N)N)NC(=O)C(C)(C)NC(=O)[C@H](CC(=O)O)NC(=O)[C@H](CC(C)C)NC(=O)[C@H](Cc1ccc(O)cc1)NC(=O)[C@H](CCCCN)NC(=O)[C@H](CO)NC(=O)[C@H](CCCCNC(=O)CCOCCOCCNC(=O)CCOCCOCCNC(=O)CCCCCCCCCCCCCCCCC(=O)O)NC(=O)[C@H](CC(=O)O)NC(=O)[C@H](CO)NC(=O)[C@@H](NC(=O)[C@H](Cc1ccccc1)NC(=O)[C@@H](NC(=O)CNC(=O)[C@H](CCC(N)=O)NC(=O)[C@@H](CO)NC(=O)[C@@H](N)Cc1c[nH]cn1)[C@@H](C)O)[C@@H](C)O)C(C)C)C(=O)N[C@@H](CC(N)=O)C(=O)N[C@H](C(=O)NCC(=O)NCC(=O)N1CCC[C@H]1C(=O)N[C@@H](CO)C(=O)N[C@@H](CO)C(=O)NCC(=O)N[C@@H](C)C(=O)N1CCC[C@H]1C(=O)N1CCC[C@H]1C(=O)N1CCC[C@H]1C(=O)N[C@@H](CO)C(N)=O)[C@@H](C)O [Compound 6],GLP-1R/GCGR,human GLP-1R,0.3
same,clinical adverse effect,"[1]; mouse, in vivo",no clinical adverse effect
same,Tmax,"[1]; mouse, in vivo",~12 h
same,half-life,"[1]; mouse, in vivo",4 to 6 h
same,peak time,"[1]; mouse, in vivo, sc",more than 12 hours
same,AUC of blood glucose in all four OGTT curve periods (0-480 min) compared with carrier (PBS),male C57B1/6J mice,significantly decreased
same,effect on oral glucose tolerance,male C57B1/6J mice,significantly reduced the oral glucose tolerance
same,weight loss,DIO mice,about 20%
same,body weight compared with normal saline group,DIO mice,significantly lower
CC[C@H](C)[C@H](NC(=O)[C@H](Cc1ccccc1)NC(=O)[C@H](CCC(=O)O)NC(=O)[C@H](CCCCNC(=O)CCOCCOCCNC(=O)CCOCCOCCNC(=O)CC[C@H](NC(=O)CCCCCCCCCCCCCCCCC(=O)O)C(=O)O)NC(=O)[C@H](C)NC(=O)[C@H](C)NC(=O)[C@H](CCCCN)NC(=O)[C@H](CCC(=O)O)NC(=O)[C@H](CC(=O)O)NC(=O)[C@H](CC(C)C)NC(=O)[C@H](Cc1ccc(O)cc1)NC(=O)[C@H](CCCCN)NC(=O)[C@H](CO)NC(=O)[C@H](Cc1ccc(O)cc1)NC(=O)[C@H](CC(=O)O)NC(=O)[C@H](CO)NC(=O)[C@@H](NC(=O)[C@H](Cc1ccccc1)NC(=O)[C@@H](NC(=O)CNC(=O)[C@H](CCC(N)=O)NC(=O)[C@@H](CO)NC(=O)[C@@H](N)Cc1c[nH]cn1)[C@@H](C)O)[C@@H](C)O)C(=O)N[C@@H](CCC(=O)O)C(=O)N[C@@H](Cc1c[nH]c2ccccc12)C(=O)N[C@@H](CC(C)C)C(=O)N[C@@H](CC(C)C)C(=O)N[C@@H](CC(N)=O)C(=O)NCC(=O)NCC(=O)N1CCC[C@H]1C(=O)N[C@@H](CO)C(=O)N[C@@H](CO)C(=O)NCC(=O)N[C@@H](C)C(=O)N1CCC[C@H]1C(=O)N1CCC[C@H]1C(=O)N1CCC[C@H]1C(=O)N[C@@H](CO)C(N)=O [Compound 4] (H-H[dS]QGTFTSDYSKYLDEKAAK([PEG2-PEG2-γGlu-C18 diacid])EFIEWLLNGGPSSGAPPPS-NH2),EC50,human GLP-1R,0.13 nM
same,GLP-1R/GCGR,human GLP-1R,0.3
same,clinical adverse effect,"[1]; IV or SC route, male CD1 mice",no clinical adverse effect
same,Tmax,"[1]; mouse, in vivo",~12 h
same,half-life,"[1]; mouse, in vivo",4 to 6 h
same,AUC of blood glucose in all four OGTT curve periods (0-480 min) compared with carrier (PBS),male C57B1/6J mice,significantly decreased
same,effect on oral glucose tolerance,male C57B1/6J mice,significantly reduced the oral glucose tolerance
same,weight loss,DIO mice,about 20%
same,body weight compared with normal saline group,DIO mice,significantly lower
